This passage reports melting point results from a melting point compilation (Tetko et al.; mined from patent text by program, amines drawn as free bases though some values may be those of a salt).

Residues, ends and D or L forms follow the SMILES beside them. *: point of attachment. Cbz = O=C(OCc1ccccc1)* Some results are limits rather than exact numbers.

The term melting point denotes the temperature of the solid-liquid transition. `Cc1c(C=O)ncn1Cc1ccccc1` came in with a melting point of 107 to 110 °C. To `N#CCC(=O)OC(COc1ccc(C(=O)c2ccccc2)c(O)c1)COc1ccc(C(=O)c2ccccc2)c(O)c1` belongs 167 to 168 °C; to `CC(=O)C[C@@H](Cc1ccccc1)C(=O)O`, 71 to 73 °C; to `CC(C)(C)C(=O)OCn1c(-c2cnn(-c3c(Cl)cc(C(F)(F)F)cc3Cl)n2)nc(C#N)c1C#N`, 103 to 104 °C.

`O=c1cc(-c2ccc(O)cc2[N+](=O)[O-])oc2ccccc12` came in with a melting point of 277 to 279 °C.

In turn, `CCOC(=O)C1=C(N)NC2=C(C(=O)CCC2)C1c1ccccc1-c1ccccc1` (stereo not given) showed a melting point of 248 °C. Then `O=C(O)c1ccc(NC(=O)C(CS)Cc2ccccc2)cc1Cl` (stereo not given), with 65 to 70 °C. Compound `CN1CCN(C2=Nc3cc(C(F)(F)F)ccc3N3CCc4cccc2c43)CC1` returned a melting point of 177 to 180 °C. Take `CCCn1c(=O)c2[nH]c([C@@H]3CC[C@H]4CCC[C@H]43)nc2n(CCC)c1=S` (relative stereo): the melting point fell in the range of 135 to 137 °C. To `CC(=O)Nc1nc2c(Oc3cc(-c4ccc(C(F)(F)F)cc4OCc4ccccc4)ncn3)cccc2s1` belongs 201 to 203 °C; to `CS(=O)(=O)c1ccc(-c2cnn(-c3cc(F)cc(F)c3)c(=O)c2-c2ccc(F)cc2)cc1`, 166 to 168 °C; to `CCCCCCCCCC(=O)Nc1ccc(S(=O)(=O)Nc2nnc(CC)s2)cc1`, 121 to 122 °C. Then `CCc1[nH]n(C2CCCC2)c2nc(-c3cccc(OCC(=O)N4CCOCC4)c3)nc(=O)c1-2`, with 212 to 213 °C.

`CC(=O)NCCn1cccc1C1=CC(=O)c2ncccc2C1=O` displayed a melting point of 164 to 165 °C. Regarding `CN1CCC=C(c2cccc3[nH]ccc23)C1`, the melting point amounted to 175 °C.

Take `Cc1c(Cl)ccc2c3c([nH]c12)[C@@]1(CC(=O)O)CC[C@H]1CC3` (relative stereo): the melting point is 189 to 190 °C.

The compound `CC(C)(c1ccc(O)cc1)c1ccc(OC#N)cc1` yielded a melting point of 75 °C. To `COc1cc(CC(=O)O)ccc1OCCNC(=O)C1Cc2ccccc2N1S(=O)(=O)c1ccc(-c2cc(C(F)(F)F)ccc2Cl)cc1` (stereo not given) belongs 74 to 76 °C; to `O=C(O)Cc1ccc2c(c1)-c1ccccc1C2`, 166 to 168 °C. Then `CCCCc1ccc(Nc2cc(C)nc3ccc(OC)cc23)cc1`, with 200 to 201 °C; and `CCOC(=O)C1(O)c2ccccc2S(=O)(=O)N1C(C)(C)C` (stereo not given), with 93 to 95 °C. To `O=C1Nc2ccc(Cl)cc2C(c2ccccc2)N1C1CCN(Cc2ccccc2)CC1` (stereo not given) belongs above 230 °C; to `CC(C)(C)C(CC#N)(SN=O)C(C)(C)C`, 92 to 93 °C. In the case of `COc1[nH]c(C)cc1C#N`, the melting point was determined as 105 °C.

Turning to `CC(=O)Nc1nc(CCc2ccc(N)cc2)c(C(=O)NCc2ccc(C(F)(F)F)cc2)s1`, the melting point is 199 to 201 °C. `CC1N(C)c2cc([N+](=O)[O-])ccc2C1(C)C` (stereo not given) returned a melting point of 55 to 59 °C. To `Cc1cc(C#N)cc(CNc2c(NC(C)(C)C)c(=O)c2=O)c1` belongs 253 to 255 °C; to `O=C1CCC(N2C(=O)c3cccc(NC(=O)c4cccc(C(F)(F)F)c4)c3C2=O)C(=O)N1` (stereo not given), 257 to 259 °C. To `COc1ccc(C(=O)NNC(C)=O)cc1` belongs 146 to 148 °C. `CC(CSC(=O)c1ccccc1)C(=O)N1CC(Oc2ccc(CC3Nc4cc(C(F)(F)F)c(S(N)(=O)=O)cc4S(=O)(=O)N3)cc2)CC1C(=O)O` (stereo not given) came in with a melting point of 170 to 182 °C. To `CCOC(=O)c1cccc2nc(OCC)n(Cc3ccc(-c4ccccc4C#N)cc3)c12` belongs 131 to 132 °C. Then `COCCc1nnc(NC(=O)C(c2ccccc2)c2ccccc2)o1`, with 114 to 115 °C; and `CC1(C)CC(=O)c2cc(C#N)c(NC3CCCC3)nc2C1`, with 154 to 156 °C; and `Cc1cc(Nc2ccc(S(F)(F)(F)(F)F)cc2)c(S(C)(=O)=O)cc1C(=O)O`, with 106 to 109 °C. To `CC(=O)Nc1ccc2c(c1)NC(=O)C(CCCN1CCN(c3ccc(F)cc3)CC1)O2` (stereo not given) belongs 111 to 112 °C; to `CC(=O)N(c1ccc(N2CCN(C)CC2)cc1)c1ncc2c(n1)S/C(=C/c1cn(C(C)=O)c3ccccc13)C(=O)N2`, 289 to 292 °C.

For `O=S(=O)(CCl)N(Cc1cccnc1)C1CCCCC1`, the melting point lay within 67 to 72 °C. To `O=C(NC(O)C(F)(F)F)c1ccc(Cl)cc1` (stereo not given) belongs 140 °C; to `Cn1nc(-c2ncc(Cl)cc2F)c(C(F)F)c1OC(F)F`, 79 to 81 °C. Then `CC(=O)c1ccc(-c2ccc(N(c3ccccc3)c3ccccc3)cc2)cc1`, with 97 to 98 °C.

As to `CNC(=O)c1cc(-c2ccc(OC)c(F)c2)nn(CC2CC2)c1=O`, the melting point was in the range of 140 to 141 °C. Then `COc1cc(C(=O)Cc2ccccc2)cc([N+](=O)[O-])c1O`, with 129 to 130 °C; and `CC(C)C(=O)NCCOc1ccc(N)cc1`, with 99 to 100 °C. Then `O=CN1CCN(c2nc3cccc4c3n2CCC4)CC1`, with 138 to 139 °C; and `Cn1c(=O)c2c(Cl)nccc2n(C)c1=O`, with 220 °C; and `COC(=O)COc1ccc(OCC2CCN(c3ccncc3)CC2)cc1`, with 127 to 129 °C. Then `COC(=O)c1c(C)nc2c(C)cc(C)cc2c1-c1ccccc1Cl`, with 119 to 120 °C; and `CC(=O)CC(=S)NCC(=O)N1CCC[C@H]1C(=O)O`, with above 320 °C. Compound `COC(=O)c1cncn1C1c2ccccc2C(OC)(OC)C1(C)C` (stereo not given) gave a melting point of 140 to 141 °C. Then `Cc1nn(C)c2c1c(=O)n(-c1ccccc1)c1ncccc21`, with above 300 °C.

In turn, `O=C1N(Cc2cc(-c3ccc(Cl)cc3)oc2C(F)(F)F)c2ccccc2C12COc1cc3c(cc12)OCO3` (stereo not given) displayed a melting point of 114 to 116 °C. In turn, `CCn1c(C#N)ccc1-c1ccc2c(c1)C(C)(C)OC(=S)N2` displayed a melting point of 212 to 213 °C. Turning to `CCCN(CCC)Cc1nnc(-c2ncn3c2CN(C)C(=O)c2c-3ccc(F)c2Cl)o1`, the melting point was 128 to 130 °C. Then `Cc1ccc(C)c(OCc2ccccc2C(=O)c2cc(C)no2)c1`, with 106 to 108 °C; and `CCC(C)NC(=O)c1ncc(C)cc1C(=O)OC` (stereo not given), with 58 to 60 °C; and `Nc1cc(F)ccc1Nc1ccccc1`, with 83 to 84 °C. To `Cc1ccc(-c2nn(CCCO)c(N)c2C(N)=O)cc1` belongs 164 to 165 °C; to `CC1(C)OCCn2c1nc(C(=O)NCc1ccc(F)cc1P(=O)(O)OCc1ccccc1)c(OCc1ccccc1)c2=O`, 142 °C.

Turning to `O=C(C=Cc1ccc2c(c1)OCO2)c1cccc(OCCCCBr)c1`, the melting point was in the range of 97 to 98 °C. Take `CC(C)N1C(=O)NC(c2ccc3c(c2)CCC3)c2cc3c(cc21)OCO3` (stereo not given): the melting point was in the range of 146 to 148 °C. Then `CCc1nc2c(cnn2CC)c(NC2CCOCC2)c1CNC(=O)c1cccc(C(=O)NCc2ccc(Cl)c(-c3cccc(CN4CC(C)NC(C)C4)c3)c2)c1` (stereo not given), with 121 to 124 °C; and `CCc1nc(C)c(C(=O)Nc2cc(Oc3ccc4nc(NC(=O)C5CC5)cn4n3)ccc2F)o1`, with 228 °C; and `CCCCC(O)c1c(C(C)C)nc(C(C)C)c(CO)c1-c1ccc(F)cc1` (stereo not given), with 166 to 168 °C.

Compound `CN1CC(=O)N2c3ccccc3Cn3c(cc4ccccc43)C2C1=O` (stereo not given) displayed a melting point of 188 to 189 °C. To `OCc1ccc(-c2ccccc2)s1` belongs 91.5 °C; to `O=C(Nc1ccccc1)OCC1CSC2=C(O1)c1ccccc1C(=O)C2=O` (stereo not given), 250 to 252 °C. Take `O=C(O)/C=C/c1ccc(-c2nc3c(=O)n(CC4CCCC4)c(=O)n(CC4CCCC4)c3[nH]2)cc1`: the melting point is above 300 °C. Then `Fc1cc(F)c(-c2c(F)nc3nncnc3c2F)c(F)c1`, with 160 to 161 °C. To `CCC(=O)NC1COC2=CC3=C(OCCC3)C(=O)C21` (stereo not given) belongs 184 °C; to `O=C(OCc1ccccc1)c1ccc(O)c(CO)c1`, 109 to 110 °C; to `Nc1cc(N2CCCC2)c2c(Cl)ccc3c2c1C(=O)N(O)C3=O`, 211 to 213 °C.

`Cc1ccc(O)c2c1C(C(=O)N(Cc1ccc(N(C)C)cc1)c1ccc(C(C)C)cc1)CCC2` (stereo not given): the melting point was found to be 190 °C. Then `NC(=O)CCC(NC(=O)OCc1ccccc1)C(=O)NCC(=O)NCC(=O)NC(CO)C(=O)NC(CC(N)=O)C(=O)NC(Cc1ccccc1)C(N)=O` (stereo not given) (Cbz-QGGSNF-NH2; configuration not given here), with 225 to 227 °C; and `CC1(c2ccccc2)CN(c2ccnc(NC(=O)NCc3ccccn3)c2)C(=O)O1` (stereo not given), with 194 to 195 °C; and `CCCC(c1ccc(C)cc1)n1c(C(=O)OC)cnc1S` (stereo not given), with 209 to 211 °C. Compound `COc1n[nH]c(=O)n1C` showed a melting point of 146 °C. To `CN(C)c1cc(N2C(=O)C3=C(CCCC3)C2=O)ccc1Cl` belongs 124 to 127 °C; to `N#Cc1c[nH]c2ncnc(N3CCCCC3)c12`, 209 to 211 °C; to `COc1ccc2cc([C@H](C)C(=O)OCC(=O)N(C)CC(=O)OCCO)ccc2c1`, 113 to 114 °C. The compound `[O-][N+]#Cc1c(Cl)ccc2cc(Cl)cnc12` showed a melting point of 185 °C.

In turn, `CC(=O)c1cccc2c1[C@@H](NC(=O)c1ccc(F)cc1)[C@H](O)C(C)(C)O2` (relative stereo) registered a melting point of 175 °C. For `COc1ccc(CN2C(=O)C3(COc4cc5onc(C)c5cc43)c3ccccc32)cc1` (stereo not given), the melting point is 138 to 139 °C. As for `COC(=O)C(C)Oc1ncn(-c2cccc(C(F)(F)F)c2)n1` (stereo not given), the melting point fell in the range of 135 to 137 °C. Then `COc1cc(C(C)=O)ccc1OCCCCN1CCC(c2n[nH]c3ccccc23)CC1`, with 133 to 135 °C; and `Cc1ccc(S(=O)(=O)Nc2cc(C(C)C)c([N+](=O)[O-])cc2Br)cc1`, with 132 °C.
